One experiment addresses T1, hBlue-cone opsin (Homo sapiens, UniProt P03999).
T1 construct: gene OPN1SW; recombinant, purified in LMNG; details only in supplement
T1 sequence (P03999 1-345): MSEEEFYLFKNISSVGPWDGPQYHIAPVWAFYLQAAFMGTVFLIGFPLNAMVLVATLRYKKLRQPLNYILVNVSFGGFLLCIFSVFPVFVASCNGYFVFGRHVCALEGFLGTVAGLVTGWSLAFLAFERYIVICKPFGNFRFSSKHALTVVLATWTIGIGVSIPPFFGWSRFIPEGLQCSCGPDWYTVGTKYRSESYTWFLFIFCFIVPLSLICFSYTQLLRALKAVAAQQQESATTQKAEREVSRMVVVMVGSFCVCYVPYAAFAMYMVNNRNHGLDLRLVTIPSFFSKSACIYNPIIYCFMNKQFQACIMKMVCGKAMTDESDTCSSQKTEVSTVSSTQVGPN
Put plainly: UV-Vis pigment spectrum; NaBH4 trapping and LC-MS/MS of retinyl peptide and retinyl-Lys. The format is binding. As to conditions: covalent Schiff base to helix VII Lys; dark state; LMNG.

A further experiment addresses T2, bRho (Bos taurus, UniProt P02699).
T2 construct: gene RHO; native, from bovine rod outer segments, purified in LMNG
The experiment is described as above. The settings on record: covalent Schiff base to helix VII Lys; dark state; LMNG. Format: binding.

Experiment [1] addresses T3, native bRGR in bRPE microsomal membranes (Bos taurus, UniProt P47803).
T3 construct: gene RGR; native, untagged, in bovine RPE microsomal membranes; chromophore site given as Lys256
T3 sequence (P47803 1-291): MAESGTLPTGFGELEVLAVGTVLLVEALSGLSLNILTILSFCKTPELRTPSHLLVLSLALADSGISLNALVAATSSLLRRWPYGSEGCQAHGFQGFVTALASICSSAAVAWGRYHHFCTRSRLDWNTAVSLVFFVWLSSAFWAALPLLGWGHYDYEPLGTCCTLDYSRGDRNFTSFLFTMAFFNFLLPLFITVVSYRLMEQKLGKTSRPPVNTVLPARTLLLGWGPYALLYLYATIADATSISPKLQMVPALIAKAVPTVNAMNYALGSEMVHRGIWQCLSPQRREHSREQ
Kind of experiment: NaBH4 trapping, HPLC and LC-MS/MS after illumination. The format is biochemical. As to conditions: photoisomerization at 530 nm, then Schiff-base hydrolysis; pH 7.4, 140 mM NaCl; native microsomes.

Another experiment addresses T4, hRed-cone opsin (Homo sapiens, UniProt P04000).
T4 construct: gene OPN1LW; recombinant, purified in LMNG; details only in supplement
T4 sequence (P04000 1-364): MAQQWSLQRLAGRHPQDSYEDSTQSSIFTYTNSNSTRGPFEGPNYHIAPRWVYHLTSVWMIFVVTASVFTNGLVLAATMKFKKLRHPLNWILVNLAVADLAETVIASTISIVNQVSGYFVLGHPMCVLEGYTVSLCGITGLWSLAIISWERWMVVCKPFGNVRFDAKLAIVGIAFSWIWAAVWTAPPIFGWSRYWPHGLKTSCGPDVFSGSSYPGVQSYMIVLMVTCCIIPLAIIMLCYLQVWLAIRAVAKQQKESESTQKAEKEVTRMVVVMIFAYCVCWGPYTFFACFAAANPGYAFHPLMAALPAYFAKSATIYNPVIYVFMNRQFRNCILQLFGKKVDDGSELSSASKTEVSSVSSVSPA
Kind of experiment: UV-Vis pigment spectrum; NaBH4 trapping and LC-MS/MS of retinyl peptide and retinyl-Lys. Format: binding. As to conditions: covalent Schiff base to helix VII Lys; dark state; LMNG.

Experiment [2] deals with T3, native bRGR in bRPE microsomal membranes. Put plainly: NaBH4 trapping, proteinase K or pronase digestion, LC-MS/MS. The format is binding. The settings on record: covalent Schiff base at Lys256; native bovine RPE microsomes; before illumination.
For experiment [3], the target named is T5, bRGR (recombinant, 1D4-tagged) (Bos taurus, UniProt P47803).
T5 construct: gene RGR; chromophore site given as Lys256
T5 sequence (P47803 1-291): T3 sequence (P47803 1-291)
Kind of experiment: UV-Vis pigment spectrum; NaBH4 trapping and LC-MS/MS of retinyl peptide. The format is binding. The settings on record: covalent Schiff base at Lys256; LMNG micelles; before illumination.

T2 sequence (P02699 whole entry): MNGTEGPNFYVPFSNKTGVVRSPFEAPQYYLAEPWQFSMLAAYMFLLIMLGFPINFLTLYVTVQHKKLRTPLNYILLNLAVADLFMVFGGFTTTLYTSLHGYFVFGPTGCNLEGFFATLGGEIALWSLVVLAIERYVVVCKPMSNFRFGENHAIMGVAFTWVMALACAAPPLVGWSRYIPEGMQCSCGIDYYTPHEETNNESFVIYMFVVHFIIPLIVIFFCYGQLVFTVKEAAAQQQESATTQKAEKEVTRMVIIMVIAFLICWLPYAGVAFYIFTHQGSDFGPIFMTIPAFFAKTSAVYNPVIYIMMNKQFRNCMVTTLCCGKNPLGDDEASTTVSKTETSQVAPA

`CC1=C(/C=C/C(C)=C/C=C\C(C)=C\C=O)C(C)(C)CCC1` [11-cis-retinal]: the “UV-Vis pigment spectrum; NaBH4 trapping and LC-MS/MS of retinyl peptide and reti” value on hBlue-cone opsin, on bRho and on hRed-cone opsin was “the resultant N^ε-retinyl-Lys was predominantly in the 11-cis configuration” in each case. In experiment [1], the “NaBH4 trapping, HPLC and LC-MS/MS after illumination” value is recorded as “rapid hydrolytic production of 11-cis-retinal by bRGR in native membranes was recapitulated in this study”.
In the case of `CC1=C(/C=C/C(C)=C/C=C/C(C)=C/C=O)C(C)(C)CCC1` [all-trans-retinal], the “NaBH4 trapping, proteinase K or pronase digestion, LC-MS/MS” value in experiment [2] is recorded as “Microsomal bRGR reconstituted with slight excess of all-trans-retinal was analyzed by LC-MS/MS”. Further, the “UV-Vis pigment spectrum; NaBH4 trapping and LC-MS/MS of retinyl peptide” value in experiment [3] is “recombinantly produced bRGR adducted with all-trans-retinal was immunopurified in lauryl maltose neopentyl glycol (LMNG) micelles”.
